# Entries after “also recorded” stand apart in the source; their conditions may differ.
# Assays:
# Gabra5 = Gabra5 transcript expression by qPCR in prelimbic cortex and hippocampus; assay type: in vivo, C57BL/6J mice
# Procedure: Twenty-four hours after the final behavioral test, mice were injected with either an acute dose of α5-PAM or vehicle 30 min prior to rapid perfusion (2 ml 4%PFA). Brains were rapidly dissected and flash frozen on dry ice. 160 μm thick coronal sections were obtained using a cryostat. The prelimbic cortex and dorsal hippocampus were dissected with a 1 mm diameter micropunch and tissue samples were then frozen at -80°C. Total RNA was extracted with an RNAeasy FFPE kit (Qiagen, Germantown, MD, USA) and tested for purity on a NanoDrop Spectrophotometer (260/280 ≥ 1.9). RNA concentration and integrity (RIN > 7) were then assessed using the Agilent RNA6000 Pico-Kit and Agilent 2100 Bioanalyzer (Agilent Technologies, Santa Clara, CA, USA).
# Approximately 90 ng of total RNA was used to generate cDNA via the qScript^TM cDNA Supermix synthesis kit (Quanta Biosciences, Gaithersburg, MD, USA). Real-time quantitative polymerase chain (qPCR) reactions were carried out using SYBR green fluorescence signal (Invitrogen, Carlsbad, CA, USA) and an Opticon Monitor DNA Engine (Bio-Rad, Berkeley, CA, USA). Gene of interest was the α5-subunit of the GABAA receptor (Gabra5). Samples were run in triplicate and ΔCt values were calculated by comparing the Ct values of Gabra5 to the geometric mean of two reference genes, β-Actin and glyceraldehyde 3-phosphate dehydrogenase (Gapdh). Arbitrary signal intensity was calculated as 2^-ΔCt∗10,000.
# [1] = Pharmacokinetic study, plasma and brain levels after single i.p. injection; assay type: in vivo, C57BL/6J mice; conditions: 30 mg/kg i.p.; for Brain AUC0-3: mean ± SEM
# Procedure: Adult (8 weeks old) male and female C57BL/6J (Military Farm, Belgrade, Serbia) were divided into six groups corresponding to pre-determined time intervals following a single 30 mg/kg α5-PAM injection (5, 10, 20, 40, 60, and 180 min). At 30 mg/kg α5-PAM administration has high affinity for the α5-subunit and lower affinity for GABAA-receptors containing other subunits ([Savic et al., 2010]). As the goal of this study was to selectively evaluate positive modulation of α5-containing GABAA receptors to stress-induced behaviors, we chose this dose to conduct preliminary pharmacokinetic analyses. Blood samples were collected in heparinized syringes via cardiac puncture of mice anesthetized with ketamine (100 mg/kg i.p.; 10% Ketamidor, Richter Pharma Ag, Wels, Austria), and centrifuged at 2500 rpm for 10 min to obtain plasma. Thereafter, mice were decapitated and brains were weighed, homogenized in 2 mL of methanol and centrifuged at 6000 rpm for 20 min. To determine the concentration of α5-PAM in plasma and supernatants of brain tissue homogenates, α5-PAM was extracted by solid phase extraction using Oasis HLB cartridges (Waters Corporation, Milford, MA, USA). The procedure of sample preparation and determination of α5-PAM by ultra performance liquid chromatography–tandem mass spectrometry (UPLC–MS/MS) with Thermo Scientific Accela 600 UPLC system connected to a Thermo Scientific TSQ Quantum Access MAX triple quadrupole mass spectrometer (Thermo Fisher Scientific, San Jose, CA, USA) equipped with electrospray ionization (ESI) source, is described in [Obradovic et al. (2014)].
# [2] = Plasma protein and brain tissue binding, rapid equilibrium dialysis; assay type: in vitro ADME, mouse
# From the text: The rapid equilibrium dialysis assay used to determine free fraction of α5-PAM in mouse plasma and brain tissue was the same as in [Obradovic et al. (2014)].
smiles,measurement,setting,value
C#Cc1ccc2c(c1)C(c1ccccc1F)=N[C@H](C)c1c(C(=O)OCC)ncn1-2 [α5-PAM],"Gabra5 (α5) transcript expression, prelimbic cortex","Gabra5; female UCMS mice, acute treatment",significantly increased; also recorded: increases
same,"Gabra5 (α5-subunit) transcript expression, hippocampus","Gabra5; female UCMS mice, chronic treatment",increases
same,Gabra5 gene expression,"Gabra5; male UCMS mice, acute or chronic treatment, prelimbic cortex and hippocampus",No change
same,"Gabra5 (α5) transcript expression, prelimbic cortex","Gabra5; male or female UCMS mice, chronic treatment",No effect
same,"Brain AUC0-3, females relative to males",[1],approximately 1.25 X
same,Brain AUC0-3,[1]; female mice,4910.13 ± 1032.02 ng·h/g
same,Brain AUC0-3,[1]; male mice,3944.49 ± 560.30 ng·h/g
same,"free fraction, brain tissue",[2]; mouse brain tissue,2.73%
same,"free fraction, plasma",[2]; mouse plasma,7.44%
